Results published in ChEMBL document CHEMBL1201862, “PubChem BioAssay data set” (2004).
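Dose response: 5 concentrations. Exposure: 48 h. Format: 96-well plates. Endpoint: linear interpolation; highest concentration if not reached. Here, GI50 denotes the concentration required for 50% inhibition of growth.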 Calls of active or inactive are those of the source. Cut-off read from the data, not from the text of the source: active = GI50 up to about 1.1 µM and inactive = higher.

Legend:
Assay in all cases: NCI anticancer screen, dose series, 48 h
[1] = test system: OVCAR-4
[2] = test system: SR
[3] = test system: SF-295
[4] = test system: HCT-15
[5] = test system: HCT-116
[6] = test system: CAKI-1
[7] = test system: OVCAR-3
[8] = test system: DU-145
[9] = test system: OVCAR-8
[10] = test system: UACC-257
[11] = test system: COLO 205
[12] = test system: 786-0
[13] = test system: NCI-H23
[14] = test system: K562
[15] = test system: ACHN
[16] = test system: SNB-19
[17] = test system: OVCAR-5
[18] = test system: T47D
[19] = test system: HOP-92
[20] = test system: BT-549
[21] = test system: A498
[22] = test system: NCI-H460
[23] = test system: NCI-H226
[24] = test system: LOX IMVI
[25] = test system: IGROV-1
[26] = test system: SW-620
[27] = test system: UO-31
[28] = test system: HT-29
[29] = test system: SK-MEL-5
[30] = test system: EKVX
[31] = test system: A549
[32] = test system: SK-MEL-2
[33] = test system: Hs-578T
[34] = test system: SN12C
[35] = test system: U-251
[36] = test system: Malme-3M
[37] = test system: M14
[38] = test system: UACC-62
[39] = test system: CCRF-CEM
[40] = test system: HCC 2998
[41] = test system: SK-OV-3
[42] = test system: SNB-75
[43] = test system: NCI-H522
[44] = test system: RXF 393
[45] = test system: SF-268
[46] = test system: PC-3
[47] = test system: NCI/ADR-RES
[48] = test system: SK-MEL-28
[49] = test system: MDA-N
[50] = test system: TK-10
[51] = test system: MCF7
[52] = test system: MDA-MB-435
[53] = test system: MDA-MB-231
[54] = test system: MOLT-4
[55] = test system: RPMI-8226
[56] = test system: HOP-62
[57] = test system: KM12
[58] = test system: HL-60
[59] = test system: SF-539

O=C1c2ccccc2C(=O)N1CCCCCCNOCCCN1C(=O)c2ccccc2C1=O
GI50 [1]: 22.3 µM (inactive)
GI50 [2]: 33.4 µM (inactive)
GI50 [3]: 29.4 µM (inactive)
GI50 [4]: 40.2 µM
GI50 [5]: 48.8 µM (inactive)
GI50 [6]: 50.4 µM (inactive)
GI50 [7]: 23.7 µM (inactive)
GI50 [8]: 51.8 µM (inactive)
GI50 [9]: 38.9 µM (inactive)
GI50 [10]: 31.1 µM (inactive)
GI50 [11]: 38.7 µM (inactive)
GI50 [12]: 99.1 µM (inactive)
GI50 [13]: 26.1 µM (inactive)
GI50 [14]: 29.7 µM (inactive)
GI50 [15]: 36.7 µM (inactive)
GI50 [16]: 78.3 µM (inactive)
GI50 [17]: > 100 µM (inactive)
GI50 [18]: 16.8 µM (inactive)
GI50 [19]: 34 µM (inactive)
GI50 [20]: 30.3 µM (inactive)
GI50 [21]: 21.6 µM (inactive)
GI50 [22]: 44.2 µM (inactive)
GI50 [23]: > 100 µM (inactive)
GI50 [24]: 36.2 µM (inactive)
GI50 [25]: 90.6 µM (inactive)
GI50 [26]: > 100 µM (inactive)
GI50 [27]: 34 µM (inactive)
GI50 [28]: 36.6 µM (inactive)
GI50 [29]: 15.4 µM (inactive)
GI50 [30]: 25.6 µM (inactive)
GI50 [31]: 32.4 µM (inactive)
GI50 [32]: 16.3 µM (inactive)
GI50 [33]: > 100 µM (inactive)
GI50 [34]: > 100 µM (inactive)
GI50 [35]: 63 µM (inactive)
GI50 [36]: 41.3 µM (inactive)
GI50 [37]: 21.3 µM (inactive)
GI50 [38]: 19.5 µM (inactive)
GI50 [39]: 25.6 µM (inactive)
GI50 [40]: > 100 µM (inactive)
GI50 [41]: 56.9 µM (inactive)
GI50 [42]: 25.1 µM (inactive)
GI50 [43]: 26.5 µM (inactive)
GI50 [44]: 17.5 µM (inactive)
GI50 [45]: > 100 µM (inactive)
GI50 [46]: 28.3 µM (inactive)
GI50 [47]: 26.4 µM (inactive)
GI50 [48]: 55.3 µM (inactive)
GI50 [49]: 31.6 µM (inactive)
GI50 [50]: 59 µM (inactive)
GI50 [51]: 35.3 µM (inactive)
GI50 [52]: 25.2 µM (inactive)
GI50 [53]: 57.5 µM (inactive)
GI50 [54]: 19.3 µM (inactive)
GI50 [55]: 14.4 µM (inactive)
GI50 [56]: 45.1 µM (inactive)
GI50 [57]: 27.1 µM (inactive)

CCN(CC)CCN1C(=O)c2cccc3cc(N)cc(c23)C1=O
GI50 [1]: 12.4 µM (inactive)
GI50 [2]: 3.32 µM (inactive)
GI50 [3]: 9.12 µM (inactive)
GI50 [4]: 5.43 µM
GI50 [5]: 4.16 µM (inactive)
GI50 [6]: 7.28 µM (inactive)
GI50 [7]: 12.7 µM (inactive)
GI50 [8]: 8.45 µM (inactive)
GI50 [9]: 6.68 µM (inactive)
GI50 [10]: 10.7 µM (inactive)
GI50 [11]: 4.41 µM (inactive)
GI50 [12]: 5.32 µM (inactive)
GI50 [13]: 7.23 µM (inactive)
GI50 [14]: 5.98 µM (inactive)
GI50 [15]: 4.94 µM (inactive)
GI50 [16]: 13.6 µM (inactive)
GI50 [17]: 3.06 µM (inactive)
GI50 [18]: 18.7 µM (inactive)
GI50 [19]: 35.8 µM (inactive)
GI50 [20]: 16.1 µM (inactive)
GI50 [58]: 16.6 µM (inactive)
GI50 [21]: 19.1 µM (inactive)
GI50 [22]: 3.98 µM (inactive)
GI50 [23]: 16.6 µM (inactive)
GI50 [25]: 7.59 µM (inactive)
GI50 [26]: 4.91 µM (inactive)
GI50 [27]: 5.89 µM (inactive)
GI50 [28]: 3.24 µM (inactive)
GI50 [29]: 12.9 µM (inactive)
GI50 [30]: 5.02 µM (inactive)
GI50 [31]: 5.57 µM (inactive)
GI50 [32]: 18.9 µM (inactive)
GI50 [33]: 22.7 µM (inactive)
GI50 [34]: 4.31 µM (inactive)
GI50 [35]: 9.48 µM (inactive)
GI50 [36]: 13 µM (inactive)
GI50 [37]: 13.3 µM (inactive)
GI50 [38]: 11.8 µM (inactive)
GI50 [59]: 5.09 µM (inactive)
GI50 [39]: 6.28 µM (inactive)
GI50 [40]: 8.61 µM (inactive)
GI50 [41]: 8.53 µM (inactive)
GI50 [42]: 15.8 µM (inactive)
GI50 [43]: 6.43 µM (inactive)
GI50 [44]: 14.2 µM (inactive)
GI50 [45]: 12.6 µM (inactive)
GI50 [46]: 16.1 µM (inactive)
GI50 [47]: 7.21 µM (inactive)
GI50 [48]: 19.3 µM (inactive)
GI50 [49]: 10.3 µM (inactive)
GI50 [50]: 17.9 µM (inactive)
GI50 [51]: 4.39 µM (inactive)
GI50 [52]: 10.2 µM (inactive)
GI50 [53]: 16.9 µM (inactive)
GI50 [54]: 3.46 µM (inactive)
GI50 [55]: 7.35 µM (inactive)
GI50 [56]: 5.45 µM (inactive)
GI50 [57]: 9.73 µM (inactive)

Clc1ccc2c(NC3CCC(N4CCCCC4)CC3)ccnc2c1 (stereo not drawn)
GI50 [1]: 26.5 µM (inactive)
GI50 [2]: 13.2 µM (inactive)
GI50 [3]: 19.1 µM (inactive)
GI50 [4]: 27.4 µM
GI50 [5]: 13.4 µM (inactive)
GI50 [6]: 22.2 µM (inactive)
GI50 [7]: 20.8 µM (inactive)
GI50 [8]: 27.4 µM (inactive)
GI50 [9]: 29.4 µM (inactive)
GI50 [10]: 14.3 µM (inactive)
GI50 [11]: 11.7 µM (inactive)
GI50 [12]: 15.4 µM (inactive)
GI50 [13]: 52.5 µM (inactive)
GI50 [14]: 3.3 µM (inactive)
GI50 [15]: 32.6 µM (inactive)
GI50 [16]: 32.7 µM (inactive)
GI50 [17]: 30.7 µM (inactive)
GI50 [18]: 29.4 µM (inactive)
GI50 [19]: 12.6 µM (inactive)
GI50 [20]: 18.5 µM (inactive)
GI50 [58]: 14.5 µM (inactive)
GI50 [21]: 18.3 µM (inactive)
GI50 [22]: 15 µM (inactive)
GI50 [23]: 25.1 µM (inactive)
GI50 [24]: 14.9 µM (inactive)
GI50 [25]: 29.2 µM (inactive)
GI50 [26]: 27.7 µM (inactive)
GI50 [27]: 13.9 µM (inactive)
GI50 [28]: 11.4 µM (inactive)
GI50 [29]: 15.2 µM (inactive)
GI50 [30]: 21.2 µM (inactive)
GI50 [31]: 31.8 µM (inactive)
GI50 [32]: 18.2 µM (inactive)
GI50 [33]: 27.2 µM (inactive)
GI50 [34]: 34.5 µM (inactive)
GI50 [35]: 21 µM (inactive)
GI50 [36]: 20.2 µM (inactive)
GI50 [37]: 5.16 µM (inactive)
GI50 [38]: 17.9 µM (inactive)
GI50 [59]: 15.4 µM (inactive)
GI50 [39]: 6.03 µM (inactive)
GI50 [40]: 12.2 µM (inactive)
GI50 [41]: 57.9 µM (inactive)
GI50 [43]: 20.9 µM (inactive)
GI50 [44]: 18.2 µM (inactive)
GI50 [45]: 35.8 µM (inactive)
GI50 [46]: 32.5 µM (inactive)
GI50 [47]: 34 µM (inactive)
GI50 [48]: 18.6 µM (inactive)
GI50 [49]: 16.7 µM (inactive)
GI50 [50]: 18.4 µM (inactive)
GI50 [51]: 28.8 µM (inactive)
GI50 [52]: 14.1 µM (inactive)
GI50 [53]: 16.9 µM (inactive)
GI50 [54]: 14.6 µM (inactive)
GI50 [55]: 18.1 µM (inactive)
GI50 [56]: 29.9 µM (inactive)
GI50 [57]: 20.1 µM (inactive)
